# Measurements from ChEMBL document CHEMBL1201862, “PubChem BioAssay data set” (2004).
#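 Briefly, cells in 96-well plates were exposed to five compound concentrations for 48 h, and endpoints were estimated by linear interpolation. The concentration for 50% growth inhibition is given as GI50.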 The source made the active and inactive calls. Rule as the data show it: active = GI50 up to about 1.1 µM and inactive = higher.
# What was measured:
# Test in all cases: NCI anticancer screen, dose series, 48 h
# 786-0 = system: 786-0
# A498 = system: A498
# A549 = system: A549
# ACHN = system: ACHN
# BT-549 = system: BT-549
# CAKI-1 = system: CAKI-1
# CCRF-CEM = system: CCRF-CEM
# COLO 205 = system: COLO 205
# DU-145 = system: DU-145
# EKVX = system: EKVX
# HCC 2998 = system: HCC 2998
# HCT-116 = system: HCT-116
# HCT-15 = system: HCT-15
# HL-60 = system: HL-60
# HOP-62 = system: HOP-62
# HOP-92 = system: HOP-92
# HT-29 = system: HT-29
# Hs-578T = system: Hs-578T
# IGROV-1 = system: IGROV-1
# K562 = system: K562
# KM12 = system: KM12
# LOX IMVI = system: LOX IMVI
# M14 = system: M14
# MCF7 = system: MCF7
# MDA-MB-231 = system: MDA-MB-231
# MDA-MB-435 = system: MDA-MB-435
# MDA-N = system: MDA-N
# MOLT-4 = system: MOLT-4
# Malme-3M = system: Malme-3M
# NCI-H226 = system: NCI-H226
# NCI-H23 = system: NCI-H23
# NCI-H460 = system: NCI-H460
# NCI-H522 = system: NCI-H522
# NCI/ADR-RES = system: NCI/ADR-RES
# OVCAR-3 = system: OVCAR-3
# OVCAR-4 = system: OVCAR-4
# OVCAR-5 = system: OVCAR-5
# OVCAR-8 = system: OVCAR-8
# PC-3 = system: PC-3
# RPMI-8226 = system: RPMI-8226
# RXF 393 = system: RXF 393
# SF-268 = system: SF-268
# SF-295 = system: SF-295
# SF-539 = system: SF-539
# SK-MEL-28 = system: SK-MEL-28
# SK-MEL-2 = system: SK-MEL-2
# SK-MEL-5 = system: SK-MEL-5
# SK-OV-3 = system: SK-OV-3
# SN12C = system: SN12C
# SNB-19 = system: SNB-19
# SNB-75 = system: SNB-75
# SR = system: SR
# SW-620 = system: SW-620
# T47D = system: T47D
# TK-10 = system: TK-10
# U-251 = system: U-251
# UACC-257 = system: UACC-257
# UACC-62 = system: UACC-62
# UO-31 = system: UO-31
smiles,measurement,setting,value
Cc1c(-c2nc(N)nc(C3CC3)c2C)nc(N)nc1C1CC1,GI50,786-0,> 100 µM (inactive)
same,GI50,A498,> 100 µM (inactive)
same,GI50,A549,> 100 µM (inactive)
same,GI50,ACHN,> 100 µM (inactive)
same,GI50,BT-549,> 100 µM (inactive)
same,GI50,CAKI-1,> 100 µM (inactive)
same,GI50,CCRF-CEM,> 100 µM (inactive)
same,GI50,COLO 205,> 100 µM (inactive)
same,GI50,DU-145,> 100 µM (inactive)
same,GI50,EKVX,> 100 µM (inactive)
same,GI50,HCC 2998,> 100 µM (inactive)
same,GI50,HCT-116,> 100 µM (inactive)
same,GI50,HCT-15,> 100 µM
same,GI50,HL-60,> 100 µM (inactive)
same,GI50,HOP-62,> 100 µM (inactive)
same,GI50,HOP-92,> 100 µM (inactive)
same,GI50,HT-29,> 100 µM (inactive)
same,GI50,Hs-578T,> 100 µM (inactive)
same,GI50,IGROV-1,> 100 µM (inactive)
same,GI50,K562,> 100 µM (inactive)
same,GI50,KM12,> 100 µM (inactive)
same,GI50,LOX IMVI,> 100 µM (inactive)
same,GI50,M14,> 100 µM (inactive)
same,GI50,MCF7,> 100 µM (inactive)
same,GI50,MDA-MB-231,> 100 µM (inactive)
same,GI50,MDA-MB-435,> 100 µM (inactive)
same,GI50,MDA-N,> 100 µM (inactive)
same,GI50,MOLT-4,> 100 µM (inactive)
same,GI50,Malme-3M,> 100 µM (inactive)
same,GI50,NCI-H226,> 100 µM (inactive)
same,GI50,NCI-H23,> 100 µM (inactive)
same,GI50,NCI-H460,> 100 µM (inactive)
same,GI50,NCI-H522,> 100 µM (inactive)
same,GI50,NCI/ADR-RES,> 100 µM (inactive)
same,GI50,OVCAR-3,> 100 µM (inactive)
same,GI50,OVCAR-4,> 100 µM (inactive)
same,GI50,OVCAR-5,> 100 µM (inactive)
same,GI50,OVCAR-8,> 100 µM (inactive)
same,GI50,PC-3,> 100 µM (inactive)
same,GI50,RPMI-8226,> 100 µM (inactive)
same,GI50,RXF 393,> 100 µM (inactive)
same,GI50,SF-268,> 100 µM (inactive)
same,GI50,SF-295,> 100 µM (inactive)
same,GI50,SF-539,> 100 µM (inactive)
same,GI50,SK-MEL-28,> 100 µM (inactive)
same,GI50,SK-MEL-2,> 100 µM (inactive)
same,GI50,SK-MEL-5,> 100 µM (inactive)
same,GI50,SK-OV-3,> 100 µM (inactive)
same,GI50,SN12C,> 100 µM (inactive)
same,GI50,SNB-19,> 100 µM (inactive)
same,GI50,SNB-75,> 100 µM (inactive)
same,GI50,SR,> 100 µM (inactive)
same,GI50,SW-620,> 100 µM (inactive)
same,GI50,T47D,> 100 µM (inactive)
same,GI50,TK-10,> 100 µM (inactive)
same,GI50,U-251,> 100 µM (inactive)
same,GI50,UACC-257,> 100 µM (inactive)
same,GI50,UACC-62,> 100 µM (inactive)
same,GI50,UO-31,> 100 µM (inactive)
CC(=O)OC[C@@]1(C)[C@@H]2[C@@H]3[C@@]4(CO[C@]3(C)C(=O)[C@@]3(O)C[C@H](C)[C@H](OC(C)=O)[C@@H]3[C@H]4OC(C)=O)[C@H](OC(=O)c3ccccc3)C[C@@H]21,GI50,786-0,> 100 µM (inactive)
same,GI50,A498,> 100 µM (inactive)
same,GI50,A549,> 100 µM (inactive)
same,GI50,ACHN,> 100 µM (inactive)
same,GI50,BT-549,> 100 µM (inactive)
same,GI50,CAKI-1,> 100 µM (inactive)
same,GI50,CCRF-CEM,> 100 µM (inactive)
same,GI50,COLO 205,> 100 µM (inactive)
same,GI50,DU-145,> 100 µM (inactive)
same,GI50,EKVX,> 100 µM (inactive)
same,GI50,HCC 2998,> 100 µM (inactive)
same,GI50,HCT-116,> 100 µM (inactive)
same,GI50,HCT-15,> 100 µM
same,GI50,HL-60,> 100 µM (inactive)
same,GI50,HOP-62,> 100 µM (inactive)
same,GI50,HOP-92,> 100 µM (inactive)
same,GI50,HT-29,> 100 µM (inactive)
same,GI50,Hs-578T,> 100 µM (inactive)
same,GI50,IGROV-1,> 100 µM (inactive)
same,GI50,K562,> 100 µM (inactive)
same,GI50,KM12,> 100 µM (inactive)
same,GI50,LOX IMVI,> 100 µM (inactive)
same,GI50,M14,> 100 µM (inactive)
same,GI50,MCF7,> 100 µM (inactive)
same,GI50,MDA-MB-231,> 100 µM (inactive)
same,GI50,MDA-MB-435,> 100 µM (inactive)
same,GI50,MDA-N,> 100 µM (inactive)
same,GI50,MOLT-4,> 100 µM (inactive)
same,GI50,Malme-3M,> 100 µM (inactive)
same,GI50,NCI-H226,> 100 µM (inactive)
same,GI50,NCI-H23,> 100 µM (inactive)
same,GI50,NCI-H460,> 100 µM (inactive)
same,GI50,NCI-H522,> 100 µM (inactive)
same,GI50,NCI/ADR-RES,> 100 µM (inactive)
same,GI50,OVCAR-3,> 100 µM (inactive)
same,GI50,OVCAR-4,> 100 µM (inactive)
same,GI50,OVCAR-5,> 100 µM (inactive)
same,GI50,OVCAR-8,> 100 µM (inactive)
same,GI50,PC-3,> 100 µM (inactive)
same,GI50,RPMI-8226,> 100 µM (inactive)
same,GI50,RXF 393,> 100 µM (inactive)
same,GI50,SF-268,> 100 µM (inactive)
same,GI50,SF-295,> 100 µM (inactive)
same,GI50,SF-539,> 100 µM (inactive)
same,GI50,SK-MEL-28,> 100 µM (inactive)
same,GI50,SK-MEL-2,> 100 µM (inactive)
same,GI50,SK-MEL-5,> 100 µM (inactive)
same,GI50,SK-OV-3,> 100 µM (inactive)
same,GI50,SN12C,> 100 µM (inactive)
same,GI50,SNB-19,> 100 µM (inactive)
same,GI50,SNB-75,> 100 µM (inactive)
same,GI50,SR,> 100 µM (inactive)
same,GI50,SW-620,> 100 µM (inactive)
same,GI50,T47D,> 100 µM (inactive)
same,GI50,TK-10,> 100 µM (inactive)
same,GI50,U-251,> 100 µM (inactive)
same,GI50,UACC-257,> 100 µM (inactive)
same,GI50,UACC-62,> 100 µM (inactive)
same,GI50,UO-31,> 100 µM (inactive)
CC(C)(C)N1C(=O)c2ccccc2C1(O)C(F)(F)F (stereo unspecified),GI50,786-0,> 100 µM (inactive)
same,GI50,A498,> 100 µM (inactive)
same,GI50,A549,> 100 µM (inactive)
same,GI50,ACHN,> 100 µM (inactive)
same,GI50,BT-549,> 100 µM (inactive)
same,GI50,CAKI-1,> 100 µM (inactive)
same,GI50,CCRF-CEM,> 100 µM (inactive)
same,GI50,COLO 205,> 100 µM (inactive)
same,GI50,DU-145,> 100 µM (inactive)
same,GI50,EKVX,64 µM (inactive)
same,GI50,HCC 2998,> 100 µM (inactive)
same,GI50,HCT-116,> 100 µM (inactive)
same,GI50,HCT-15,> 100 µM
same,GI50,HL-60,> 100 µM (inactive)
same,GI50,HOP-62,> 100 µM (inactive)
same,GI50,HOP-92,> 100 µM (inactive)
same,GI50,HT-29,> 100 µM (inactive)
same,GI50,Hs-578T,24 µM (inactive)
same,GI50,IGROV-1,74 µM (inactive)
same,GI50,K562,20.5 µM (inactive)
same,GI50,KM12,> 100 µM (inactive)
same,GI50,LOX IMVI,> 100 µM (inactive)
same,GI50,M14,> 100 µM (inactive)
same,GI50,MCF7,> 100 µM (inactive)
same,GI50,MDA-MB-231,> 100 µM (inactive)
same,GI50,MDA-MB-435,> 100 µM (inactive)
same,GI50,MDA-N,84.9 µM (inactive)
same,GI50,Malme-3M,38 µM (inactive)
same,GI50,NCI-H226,> 100 µM (inactive)
same,GI50,NCI-H23,> 100 µM (inactive)
same,GI50,NCI-H460,> 100 µM (inactive)
same,GI50,NCI-H522,64.4 µM (inactive)
same,GI50,NCI/ADR-RES,> 100 µM (inactive)
same,GI50,OVCAR-3,> 100 µM (inactive)
same,GI50,OVCAR-4,> 100 µM (inactive)
same,GI50,OVCAR-5,> 100 µM (inactive)
same,GI50,OVCAR-8,> 100 µM (inactive)
same,GI50,PC-3,60.1 µM (inactive)
same,GI50,RPMI-8226,76.6 µM (inactive)
same,GI50,RXF 393,> 100 µM (inactive)
same,GI50,SF-268,> 100 µM (inactive)
same,GI50,SF-295,> 100 µM (inactive)
same,GI50,SF-539,> 100 µM (inactive)
same,GI50,SK-MEL-28,> 100 µM (inactive)
same,GI50,SK-MEL-2,> 100 µM (inactive)
same,GI50,SK-MEL-5,> 100 µM (inactive)
same,GI50,SK-OV-3,> 100 µM (inactive)
same,GI50,SN12C,> 100 µM (inactive)
same,GI50,SNB-19,> 100 µM (inactive)
same,GI50,SNB-75,24.4 µM (inactive)
same,GI50,SR,> 100 µM (inactive)
same,GI50,SW-620,> 100 µM (inactive)
same,GI50,T47D,53.6 µM (inactive)
same,GI50,TK-10,> 100 µM (inactive)
same,GI50,U-251,> 100 µM (inactive)
same,GI50,UACC-257,> 100 µM (inactive)
same,GI50,UACC-62,> 100 µM (inactive)
same,GI50,UO-31,> 100 µM (inactive)
